Like-named read-outs stand apart in the source and are kept apart here. A value given as a limit tells only on which side of the number the result lay.

In one test the target is T1, 5-HT1A (Sus scrofa, UniProt A0A4X1UTF5).
T1 construct: membrane preparations from porcine cortex; from tissue; host or cells: porcine cortex
T1 sequence (A0A4X1UTF5 1-422): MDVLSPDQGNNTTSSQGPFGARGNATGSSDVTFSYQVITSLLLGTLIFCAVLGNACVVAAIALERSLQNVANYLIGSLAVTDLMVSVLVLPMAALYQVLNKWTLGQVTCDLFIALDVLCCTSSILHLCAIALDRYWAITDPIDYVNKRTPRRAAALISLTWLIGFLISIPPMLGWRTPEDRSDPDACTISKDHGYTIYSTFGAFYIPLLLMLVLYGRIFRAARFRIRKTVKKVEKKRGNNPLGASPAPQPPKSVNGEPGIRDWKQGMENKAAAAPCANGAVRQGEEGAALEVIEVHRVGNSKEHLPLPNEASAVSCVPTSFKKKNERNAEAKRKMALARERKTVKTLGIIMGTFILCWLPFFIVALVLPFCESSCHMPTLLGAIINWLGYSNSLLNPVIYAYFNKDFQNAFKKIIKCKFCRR
Briefly: radioligand binding assay, serotonin 5-HT1A receptor, [3H]WAY 100635. As for the experimental part:
(§1) The investigation of receptor binding to the serotonin and adrenergic receptors was done according to a published procedure (Heindl, C. et al., Tetrahedron: Asymmetry (2003), 14, 3141-3152). In detail, for the determination of the binding properties to serotonin receptors membrane preparations from porcine cortex was incubated with the 5-HT1A selective radioligand [^3H]WAY 100635 or with the 5-HT2 selective compound [^3H]ketanserin. The measurement of alpha-1 and alpha-2 receptor binding was achieved when utilizing porcine cortical membranes and the selective radioligands [^3H]prazosin (for alpha-1) and [^3H]RX821002 in an assay similar to that described above.
(§2) The results of the binding experiments are summarized in Table 1 as mean values of two to five individual experiments each done in triplicate and expressed as Ki values in nM.

Another test addresses T2, 5-HT2 (Sus scrofa, UniProt P50129).
T2 construct: membrane preparations from porcine cortex; from tissue; host or cells: porcine cortex
Briefly: radioligand binding assay, serotonin 5-HT2 receptor, [3H]ketanserin. More on the design: species or system porcine.

In another test the target is T3, dopamine D1 receptor (Sus scrofa, UniProt P50130).
T3 construct: native membrane preparations from porcine striatum; from tissue; host or cells: porcine striatum
Kind of test: radioligand binding assay, dopamine D1 receptor, [3H]SCH 23390.
Text: (§3) Biological activity of the compounds has been determined in radioligand binding assays. These experiments have been done according to methods which are described in literature (Hübner, H. et al., J. Med. Chem. (2000), 43, 7562). For the determination of binding affinity to the receptors of the dopamine D2 family membranes were established carrying the human D2long, D2short, D3 or D4.4 receptor subtype stably expressed in Chinese hamster ovary cell lines. In principle, the binding experiments started when incubating an appropriate amount of membrane with the radioligand [^3H]spiperone and the particular test compounds used in a wide range of different concentrations from subnanomolar up to micromolar ones. In the same way, binding affinities of the test compounds to the dopamine D1 receptor were determined when using native membrane preparations from porcine striatum and the D1 selective radioligand [^3H]SCH 23390.
as §2

The target of the next test is human D2long, D2short (Homo sapiens, UniProt P14416). Kind of test: biochemical. It counts as binding. Here is the method: as §3, with “These” for “Biological activity of the compounds has been determined in radioligand binding assays. These”, “ones.” for “ones. In the same way, binding affinities of the test compounds to the dopamine D1 receptor were determined when using native membrane preparations from porcine striatum and the D1 selective radioligand [^3H]SCH 23390.”

A further test deals with human D3 (Homo sapiens, UniProt P35462). Kind of test: radioligand binding assay, dopamine D3 receptor, [3H]spiperone. Here is the method:
as §3, with “These” for “Biological activity of the compounds has been determined in radioligand binding assays. These”, “ones.” for “ones. In the same way, binding affinities of the test compounds to the dopamine D1 receptor were determined when using native membrane preparations from porcine striatum and the D1 selective radioligand [^3H]SCH 23390.”

Another test concerns the target T4, human D4.4 (Homo sapiens, UniProt P21917).
T4 sequence (P21917 1-419): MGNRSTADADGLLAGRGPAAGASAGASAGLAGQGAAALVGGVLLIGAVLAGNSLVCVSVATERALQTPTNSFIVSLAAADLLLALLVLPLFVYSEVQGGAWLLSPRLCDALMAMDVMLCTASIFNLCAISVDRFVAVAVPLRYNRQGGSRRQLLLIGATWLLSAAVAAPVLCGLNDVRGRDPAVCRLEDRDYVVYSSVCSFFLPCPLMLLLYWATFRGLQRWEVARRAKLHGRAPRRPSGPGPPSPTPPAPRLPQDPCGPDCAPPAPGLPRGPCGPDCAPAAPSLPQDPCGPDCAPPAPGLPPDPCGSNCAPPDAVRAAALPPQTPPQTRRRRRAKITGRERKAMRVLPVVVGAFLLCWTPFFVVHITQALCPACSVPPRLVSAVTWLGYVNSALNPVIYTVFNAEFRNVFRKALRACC
Kind of test: radioligand binding assay, dopamine D4.4 receptor, [3H]spiperone.
Text: as §3, §2

In another test the target is alpha-1. Kind of test: radioligand binding assay, adrenergic alpha-1 receptor, [3H]prazosin. The conditions noted are these: porcine cortical membranes, mean of two to five experiments in triplicate, read-out: Ki alpha1. Here is the method: as §1, §2
[1] abbreviates: porcine cortex membranes, mean of two to five experiments in triplicate, read-out: Ki 5-HT1a.
[2] abbreviates: porcine cortex membranes, [3H]ketanserin, mean of two to five experiments in triplicate, read-out: Ki 5-HT2.
Setting [3] is: porcine striatum membranes, mean of two to five experiments in triplicate, read-out: Ki D1.
The mark [4] stands for this setting: CHO cell membranes, [3H]spiperone; mean of two to five experiments in triplicate; read-out: Ki D2.
Setting [5] is: CHO cell membranes, mean of two to five experiments in triplicate, read-out: Ki D3.
Where [6] appears, read: CHO cell membranes, mean of two to five experiments in triplicate, read-out: Ki D4.4.

T3 sequence (P50130 whole entry): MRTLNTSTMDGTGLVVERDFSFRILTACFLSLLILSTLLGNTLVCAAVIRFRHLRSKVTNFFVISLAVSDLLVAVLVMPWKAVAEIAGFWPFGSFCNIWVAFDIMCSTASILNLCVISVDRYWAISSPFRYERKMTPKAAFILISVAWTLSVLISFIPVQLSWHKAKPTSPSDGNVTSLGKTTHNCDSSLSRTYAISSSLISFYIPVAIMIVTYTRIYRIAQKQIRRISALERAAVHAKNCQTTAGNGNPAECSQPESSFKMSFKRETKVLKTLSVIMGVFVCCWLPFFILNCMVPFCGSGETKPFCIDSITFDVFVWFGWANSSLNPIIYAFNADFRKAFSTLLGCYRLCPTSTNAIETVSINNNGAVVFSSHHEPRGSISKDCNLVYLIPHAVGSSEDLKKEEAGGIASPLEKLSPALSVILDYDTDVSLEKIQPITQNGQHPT
Chain of human D2long, D2short (P14416 whole entry): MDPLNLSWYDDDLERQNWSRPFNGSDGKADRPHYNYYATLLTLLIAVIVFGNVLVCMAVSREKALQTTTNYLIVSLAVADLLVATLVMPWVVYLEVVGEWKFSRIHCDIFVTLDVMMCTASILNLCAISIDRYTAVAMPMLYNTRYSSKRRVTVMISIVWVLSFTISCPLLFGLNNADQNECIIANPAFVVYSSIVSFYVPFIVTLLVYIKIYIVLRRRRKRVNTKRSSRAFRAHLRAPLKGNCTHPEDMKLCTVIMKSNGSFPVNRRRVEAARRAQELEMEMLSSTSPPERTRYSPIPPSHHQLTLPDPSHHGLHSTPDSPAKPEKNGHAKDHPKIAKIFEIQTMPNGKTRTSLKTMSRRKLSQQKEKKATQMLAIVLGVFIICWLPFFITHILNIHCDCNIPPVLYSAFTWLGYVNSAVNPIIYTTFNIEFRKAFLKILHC
T2 sequence (P50129 whole entry): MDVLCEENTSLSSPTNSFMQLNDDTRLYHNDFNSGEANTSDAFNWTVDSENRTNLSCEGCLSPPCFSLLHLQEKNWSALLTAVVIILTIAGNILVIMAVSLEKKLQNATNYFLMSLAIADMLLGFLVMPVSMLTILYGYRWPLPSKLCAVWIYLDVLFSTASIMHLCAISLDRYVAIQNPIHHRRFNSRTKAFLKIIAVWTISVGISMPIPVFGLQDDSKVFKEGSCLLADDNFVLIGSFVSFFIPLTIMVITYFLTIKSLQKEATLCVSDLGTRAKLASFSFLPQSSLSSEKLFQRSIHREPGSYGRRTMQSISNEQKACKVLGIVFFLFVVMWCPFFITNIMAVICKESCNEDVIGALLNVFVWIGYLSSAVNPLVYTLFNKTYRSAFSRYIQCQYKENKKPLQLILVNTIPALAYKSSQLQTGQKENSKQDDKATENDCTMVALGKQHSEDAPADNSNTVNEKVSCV
Chain of human D3 (P35462 whole entry): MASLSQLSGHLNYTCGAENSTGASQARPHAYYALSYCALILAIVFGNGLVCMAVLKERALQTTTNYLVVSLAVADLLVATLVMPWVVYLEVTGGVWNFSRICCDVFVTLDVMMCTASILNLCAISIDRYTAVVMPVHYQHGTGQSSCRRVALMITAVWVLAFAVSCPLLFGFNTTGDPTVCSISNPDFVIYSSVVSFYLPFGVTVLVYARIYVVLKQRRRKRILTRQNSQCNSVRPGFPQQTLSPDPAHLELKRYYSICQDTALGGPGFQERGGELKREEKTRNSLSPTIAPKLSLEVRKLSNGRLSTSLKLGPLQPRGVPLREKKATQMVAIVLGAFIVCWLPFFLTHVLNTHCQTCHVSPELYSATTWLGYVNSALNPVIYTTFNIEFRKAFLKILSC

As a reminder, the Ki is a dissociation constant, usually derived from enzyme kinetics or from competition with a known ligand. Regarding `Cc1ccc(CNCC2(F)CCN(C(=O)c3ccc(F)s3)CC2)nc1` [Example E2], the values for the inhibitory constant (Ki) on 5-HT1A (setting [1]) and on 5-HT2 were under 0.05 µM and over 5 µM, respectively.

In the case of `Cc1ccc(CNCC2(F)CCN(C(=O)c3cc(Br)c(Br)s3)CC2)nc1` [Example E8, 4,5-Dibromothien-2-yl-[4-fluoro-4-[[(5-methylpyridin-2-ylmethyl)amino]methyl]-piperidin-1-yl]-methanone], the Ki at 5-HT1A (setting [1]) was under 0.05 µM; at 5-HT2 (setting [2]), over 5 µM.

For `CSc1ccc(C(=O)N2CCC(F)(CNCc3ccc(C)cn3)CC2)s1` [Example E12, [4-Fluoro-4-[[(5-methylpyridin-2-ylmethyl)amino]methyl]piperidin-1-yl]-5-mothylthiothien-2-yl-methanone], the Ki at dopamine D1 receptor (setting [3]) is over 5 µM; on human D2long, D2short (setting [4]), over 5 µM; at human D3 (setting [5]), over 5 µM; at human D4.4 (setting [6]) it was 0.501 to 5 µM; at 5-HT1A (setting [1]), under 0.05 µM; at 5-HT2, over 5 µM. Besides, the Ki on alpha-1 lay in the range of 0.501 to 5 µM.

For the compound `Cc1ccc(CNCC2(F)CCN(C(=O)c3ccc(-c4ccccc4)s3)CC2)nc1` [Example E13, [4-Fluoro-4-[[(5-methylpyridin-2-ylmethyl)amino]methyl]piperidin-1-yl]-5-phenylthien-2-yl-mathanone], the inhibition constant Ki is over 5 µM at dopamine D1 receptor (setting [3]); 0.501 to 5 µM at human D2long, D2short (setting [4]); 0.501 to 5 µM on human D3 (setting [5]); over 5 µM at human D4.4 (setting [6]); 0.05 to 0.5 µM on 5-HT1A (setting [1]); 0.501 to 5 µM on 5-HT2. In addition, the Ki on alpha-1 was 0.501 to 5 µM.

As for `Cc1ccc(CNCC2(F)CCN(C(=O)c3ccc(-c4ccccn4)s3)CC2)nc1` [Example E14, [4-Fluoro-4-[[(5-methylpyridin-2-ylmethyl)amino]methyl]piperidin-1-yl]-5-pyridin-2-ylthien-2-yl-methanone], the inhibition constant Ki is over 5 µM at dopamine D1 receptor (setting [3]); over 5 µM on human D2long, D2short (setting [4]); over 5 µM at human D3 (setting [5]); over 5 µM on human D4.4 (setting [6]); 0.05 to 0.5 µM at 5-HT1A (setting [1]); 0.501 to 5 µM at 5-HT2 (setting [2]). Moreover, the Ki on alpha-1 is 0.501 to 5 µM.

`Cc1ccc(CNCC2(F)CCN(C(=O)c3ccc(-c4cccs4)s3)CC2)nc1` [Example E15, [2,2']Bithien-5-yl-[4-fluoro-4-[[(5-methylpyridin-2-ylmethyl)amino]methyl]piperidin-1-yl]-methanone]: the Ki at dopamine D1 receptor (setting [3]) was over 5 µM; at human D2long, D2short (setting [4]), over 5 µM; at human D3 (setting [5]), 0.501 to 5 µM; on human D4.4 (setting [6]), over 5 µM; on 5-HT1A (setting [1]), 0.05 to 0.5 µM; on 5-HT2, 0.501 to 5 µM. For the same compound, the inhibition constant Ki at alpha-1 fell in the range of 0.501 to 5 µM.

Take `Cc1ccc(CNCC2(F)CCN(C(=O)c3ccc(-c4csc(C)n4)s3)CC2)nc1` [Example E16, [4-Fluoro-4-[[(5-methylpyridin-2-ylmethyl)amino]methyl]piperidin-1-yl]-5-(2-methylthiazol-4-yl)thien-2-yl-methanone]: the Ki on dopamine D1 receptor (setting [3]) is over 5 µM; at human D2long, D2short (setting [4]) it was over 5 µM; on human D3 (setting [5]), 0.501 to 5 µM; on human D4.4 (setting [6]), over 5 µM; at 5-HT1A (setting [1]), 0.05 to 0.5 µM; on 5-HT2 (setting [2]), over 5 µM. The Ki at alpha-1 lay within 0.501 to 5 µM.

`Cc1ccc(CNCC2(F)CCN(C(=O)c3sccc3-n3cccc3)CC2)nc1` [Example E17, [4-Fluoro-4-[[(5-methylpyridin-2-ylmethyl)amino]methyl]piperidin-1-yl]-3-pyrrol-1-ylthion-2-yl-methanone]: the Ki is over 5 µM on dopamine D1 receptor (setting [3]); over 5 µM on human D2long, D2short (setting [4]); over 5 µM at human D3 (setting [5]); 0.501 to 5 µM at human D4.4 (setting [6]); 0.05 to 0.5 µM at 5-HT1A (setting [1]); over 5 µM on 5-HT2. Also, the Ki on alpha-1 lay within 0.501 to 5 µM.

On to `Cc1ccc(CNCC2(F)CCN(C(=O)c3ccsc3Br)CC2)nc1` [Example E19, 2-Bromothien-3-yl-[4-fluoro-4-[[(5-methylpyridin-2-ylmethyl)amino]methyl]piperidin-1-yl]-methanone], for which the Ki on dopamine D1 receptor (setting [3]) was over 5 µM; at human D2long, D2short (setting [4]), over 5 µM; on human D3 (setting [5]), over 5 µM; at human D4.4 (setting [6]), 0.501 to 5 µM; on 5-HT1A (setting [1]) it was under 0.05 µM; on 5-HT2 (setting [2]) it was over 5 µM. Further, the Ki on alpha-1 was in the range of 0.501 to 5 µM.

For `COc1cscc1C(=O)N1CCC(F)(CNCc2ccc(C)cn2)CC1` [Example E20, [4-Fluoro-4-[[(5-mothylpyridin-2-ylmothyl)amino]methyl]piperidin-1-yl]-4-methoxythien-3-yl-methanone], the Ki on dopamine D1 receptor (setting [3]) is over 5 µM; on human D2long, D2short (setting [4]), over 5 µM; on human D3 (setting [5]), over 5 µM; at human D4.4 (setting [6]) it was 0.501 to 5 µM; at 5-HT1A (setting [1]), 0.05 to 0.5 µM; at 5-HT2, over 5 µM. Besides, the Ki on alpha-1 was over 5 µM.

Turning to `COc1c(C(=O)N2CCC(F)(CNCc3ccc(C)cn3)CC2)csc1Cl` [Example E21, 5-Chloro-4-methoxythien-3-yl-[4-fluoro-4-[[(5-methylpyridin-2-ylmethyl)amino]methyl]piperidin-1-yl]-methanone], the Ki at dopamine D1 receptor (setting [3]) was over 5 µM; at human D2long, D2short (setting [4]), over 5 µM; at human D3 (setting [5]), over 5 µM; on human D4.4 (setting [6]), 0.501 to 5 µM; at 5-HT1A (setting [1]), under 0.05 µM; at 5-HT2 (setting [2]), over 5 µM. For the same compound, the Ki on alpha-1 was in the range of 0.501 to 5 µM.

Consider `Cc1ccc(CNCC2(F)CCN(C(=O)c3cc(Br)c(Br)o3)CC2)nc1` [Example E32, 4,5-Dibromofuran-2-yl-[4-fluoro-4-[[(5-mothylpyridin-2-ylmethyl)amino]methyl]piperidin-1-yl]-methanone], for which the Ki at 5-HT1A (setting [1]) is under 0.05 µM; on 5-HT2 (setting [2]), over 5 µM.

`Cc1ccc(CNCC2(F)CCN(C(=O)c3coc4ccccc34)CC2)nc1` [Example E36]: the Ki was over 5 µM at dopamine D1 receptor (read-out: Ki D1, porcine striatum membranes, mean of two to five experiments in triplicate); over 5 µM at human D2long, D2short (read-out: Ki D2; CHO cell membranes, [3H]spiperone; mean of two to five experiments in triplicate); over 5 µM at human D3 (read-out: Ki D3, CHO cell membranes, mean of two to five experiments in triplicate); 0.501 to 5 µM at human D4.4 (read-out: Ki D4.4, CHO cell membranes, mean of two to five experiments in triplicate); under 0.05 µM at 5-HT1A (read-out: Ki 5-HT1a, porcine cortex membranes, mean of two to five experiments in triplicate).

Turning to `Cc1ccc(CNCC2(F)CCN(C(=O)c3ccc[nH]3)CC2)nc1` [Example E37, [4-Fluoro-4-[[(5-methylpyridin-2-ylmethyl)amino]methyl]piperidin-1-yl]-pyrrol-2-yl-methanone], the Ki on 5-HT1A (setting [1]) was 0.501 to 5 µM; on 5-HT2 (setting [2]), over 5 µM.

Consider `Cc1ccc(CNCC2(F)CCN(C(=O)c3cc[nH]n3)CC2)nc1` [Example E38], for which the figures for the Ki on 5-HT1A (setting [1]) and at 5-HT2 were 0.501 to 5 µM and over 5 µM, respectively.

The values above are taken from patent EP2058306A1, “Heteroaryl-substituted 2-pyridinyl-methylamine derivatives” (SCHWARZ PHARMA AG, priority 2007, dated 2009).
